From publication PMC7793009 (ACS infectious diseases, 2020)
Read-outs that look alike come from different tables or passages of the source.

Assays:
HEK293T cells = details: 24 h, ATP content (CellTiter-Glo)
[1] = system: tBHQ-induced ARE activity; assay: cells; format: cell-based; details: read-out: ARE/GFP/tBHQ IC50
p62-induced ARE activity = assay: cells; format: cell-based; details: read-out: ARE/p62 IC50
NF-κB = assay: cells; format: cell-based; details: read-out: NF-κB IC50
[2] = system: ARE activity induced by over-expression of Nrf2; assay: cells; format: cell-based; details: for IC50: read-out: ARE/Nrf2 IC50
[3] = biological target: constitutively expressed firefly luciferase (ce-FF) (Photinus pyralis, UniProt P08659); assay: cell-based; format: cell-based
endogenous Nrf2 = format: cell-based
[4] = system: mVP24-induced ARE activity; assay: siRNA; format: cell-based; details: two p53 siRNAs vs scramble, mVP24/ARE HEK293T, 24 h treatment
[5] = system: mVP24-induced ARE activity; assay: ARE/mVP24 firefly luciferase reporter assay; format: cell-based; details: plateau around 1 μM of compound
in vitro = details: human
Flag-tagged mVP24 = format: cell-based, Marburg virus

constitutively expressed firefly luciferase (ce-FF), sequence (P08659 whole entry): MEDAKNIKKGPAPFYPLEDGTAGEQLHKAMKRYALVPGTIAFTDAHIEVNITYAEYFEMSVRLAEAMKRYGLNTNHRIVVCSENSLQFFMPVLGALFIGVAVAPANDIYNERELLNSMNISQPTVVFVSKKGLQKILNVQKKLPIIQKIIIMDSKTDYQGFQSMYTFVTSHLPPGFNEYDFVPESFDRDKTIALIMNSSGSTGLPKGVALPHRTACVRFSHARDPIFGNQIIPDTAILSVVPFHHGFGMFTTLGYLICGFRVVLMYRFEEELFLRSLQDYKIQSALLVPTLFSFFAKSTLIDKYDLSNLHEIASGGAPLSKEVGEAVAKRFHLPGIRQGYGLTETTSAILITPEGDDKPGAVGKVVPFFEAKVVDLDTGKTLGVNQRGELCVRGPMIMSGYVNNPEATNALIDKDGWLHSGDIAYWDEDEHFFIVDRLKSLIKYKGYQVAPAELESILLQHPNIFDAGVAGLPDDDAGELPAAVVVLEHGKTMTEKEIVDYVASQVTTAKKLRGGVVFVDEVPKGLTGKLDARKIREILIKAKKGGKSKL

What does the source list for `Nc1ncnc2c1c(I)cn2[C@@H]1O[C@H](CO)[C@@H](O)[C@H]1O` [5-iodotubercidin]?
CC50 (HEK293T cells): > 50 µM; IC50 [1]: 0.2 µM; IC50 (p62-induced ARE activity): 0.058 µM; IC50 (NF-κB): 6.5 µM; IC50 [2]: 1.2 µM; IC50 ([3]; read-out: Ce-FF IC50): 15 µM

With `O=C(N[C@@H]1CCCc2c1[nH]c1ccc(Cl)cc21)c1ccccn1` [GSK983] as the molecule, how does the “Nrf2 expression relative to DMSO control” value (endogenous Nrf2) read?
Its value is “decreased”.

And the “effect of p53 knockdown on inhibition of mVP24-induced ARE activity” value [4]?
The value was “did not result in a reversal of inhibition”.

Which results are given for `COc1cc([C@@H]2c3cc4c(cc3[C@H](O)[C@H]3COC(=O)[C@H]23)OCO4)cc(OC)c1OC` [Podophyllotoxin, podophyllotoxin]?
plateau of inhibitory activity against mVP24-induced ARE activity [5]: approximately 80%; IC50 ([1]; Homo sapiens, HEK-293T, 24 h): 0.026 µM; Nrf2 expression relative to DMSO control (endogenous Nrf2; ARE/mVP24 HEK293T cells, 1 and 5 μM, 24 h, western blot): affected; IC50 (p62-induced ARE activity; Homo sapiens, HEK-293T, 24 h): 3.1 µM; IC50 (NF-κB; Homo sapiens, HEK-293T, 6 h): > 50 µM; CC50 at 24 h (in vitro): > 50 µM; mVP24 expression relative to DMSO control (Flag-tagged mVP24): affected; inhibition of ARE activity following over-expression of Nrf2 (in words) ([2]; ARE/Nrf2 assay): did not inhibit; IC50 ([2]; Homo sapiens, HEK-293T, 24 h): > 50 µM; IC50 [3]: > 50 µM
